Measurements: ChEMBL document CHEMBL3259626, “Discovery of the first potent and selective Mycobacterium tuberculosis Zmp1 inhibitor” (Bioorg Med Chem Lett, 2014)

Legend:
[1] = Competitive inhibition of full length Mycobacterium tuberculosis recombinant ZMP1 expressed in Escherichia coli BL21(DE3) using MCA-Pro-Leu-Gly-Leu-Dpa-Ala-Arg-NH2 as substrate by sigma plot analysis
[2] = system: Mycobacterium tuberculosis; experiment: Inhibition of full length Mycobacterium tuberculosis recombinant ZMP1 expressed in Escherichia coli BL21(DE3) using MCA-Pro-Leu-Gly-Leu-Dpa-Ala-Arg-NH2 as substrate at 100 uM by fluorometric analysis relative to control
[3] = Selectivity index, ratio of Ki for human neprilysin to Ki for full length Mycobacterium tuberculosis recombinant ZMP1
[4] = target: Neprilysin (Homo sapiens, UniProt P08473); experiment: Inhibition of human neprilysin by fluorometric analysis
Neprilysin, sequence (P08473 whole entry): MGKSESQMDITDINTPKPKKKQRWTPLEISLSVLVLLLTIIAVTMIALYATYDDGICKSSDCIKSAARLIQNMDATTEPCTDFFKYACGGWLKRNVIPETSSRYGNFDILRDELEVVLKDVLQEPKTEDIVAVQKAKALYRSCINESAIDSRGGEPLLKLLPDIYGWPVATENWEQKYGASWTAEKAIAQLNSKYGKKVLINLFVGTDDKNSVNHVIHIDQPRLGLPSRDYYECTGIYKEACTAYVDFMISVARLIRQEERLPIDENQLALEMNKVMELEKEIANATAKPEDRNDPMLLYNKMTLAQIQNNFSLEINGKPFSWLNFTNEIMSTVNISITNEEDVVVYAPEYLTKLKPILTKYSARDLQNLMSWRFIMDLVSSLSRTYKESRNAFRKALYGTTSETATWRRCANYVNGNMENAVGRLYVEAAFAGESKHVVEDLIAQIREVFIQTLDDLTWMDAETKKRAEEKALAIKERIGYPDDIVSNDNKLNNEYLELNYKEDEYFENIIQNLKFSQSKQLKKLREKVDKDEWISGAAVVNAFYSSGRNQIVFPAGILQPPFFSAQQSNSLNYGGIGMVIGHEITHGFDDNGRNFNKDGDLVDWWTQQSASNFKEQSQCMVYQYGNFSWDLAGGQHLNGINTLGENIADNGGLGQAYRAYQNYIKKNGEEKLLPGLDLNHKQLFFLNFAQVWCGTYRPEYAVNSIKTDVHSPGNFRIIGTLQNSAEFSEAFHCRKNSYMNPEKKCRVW

| SMILES | Ki [1] [µM] | inhibition [2] [%] | other results |
| --- | --- | --- | --- |
| O=C(O)CN1C(=O)/C(=C2/Sc3ccccc3N2CCCS(=O)(=O)O)SC1=S | 4.8 | – | – |
| C=Cc1[nH]c(C(C)NC(=O)c2ccc(=O)n(CC(=O)NCc3ccc(F)cc3)c2)nc1C (stereo not drawn) | – | 16 | – |
| O=C(O)c1ccc(/C=C2/SC(=S)N(C(Cc3ccccc3)C(=O)O)C2=O)cc1 (racemic) | 0.39 | – | – |
| Cn1c(=O)c2c(nc(SCC(=O)O)n2Cc2ccc(Cl)cc2)n(C)c1=O | – | 28 | – |
| O=C(O)c1ccc(/C=C2/SC(=S)N([C@@H](Cc3ccccc3)C(=O)O)C2=O)cc1 | 1.7 | – | Ratio Ki [3]: 21.7; Ki [4]: 37 µM |
| O=S(=O)(O)CCCSc1sc2ccc(Cl)cc2[n+]1CCCS(=O)(=O)O | 32.9 | 78 | – |
| O=C(O)CCC(C(=O)O)N1C(=O)/C(=C\c2ccc(-c3cccc(Cl)c3Cl)o2)SC1=S (stereo not drawn) | 3.7 | – | – |
| O=C(OCc1ccccc1)c1ccc(/C=C2\SC(=S)N([C@H](Cc3ccccc3)C(=O)O)C2=O)cc1 | 1.8 | – | – |
| O=C(O)CC(C(=O)O)N1C(=O)/C(=C\c2ccc(O)c(O)c2)SC1=S (stereo not drawn) | 2.7 | – | – |
| O=C(O)c1ccc(/C=C2/SC(=S)N([C@H](Cc3ccccc3)C(=O)O)C2=O)cc1 | 0.094 | – | Ratio Ki [3]: 266; Ki [4]: 25 µM |
| O=C1/C(=C\c2ccc(-c3cccc([N+](=O)[O-])c3)o2)SC(=S)N1CCS(=O)(=O)O | 32.2 | – | – |
| O=C(NC(Cc1ccccc1)C(=O)O)/C(=C/c1cccc([N+](=O)[O-])c1)NC(=O)c1ccco1 (stereo not drawn) | – | 54 | – |
| COC(=O)c1ccc(/C=C2\SC(=S)N([C@H](Cc3ccccc3)C(=O)O)C2=O)cc1 | 5.7 | – | – |
